Legend:
[1] = Partition coefficient (logD) (octanol/borax buffer); format: physicochemical
[2] = molecular target: Histamine H2 receptor (Cavia porcellus) (UniProt P47747); assay: Histamine H2 receptor blocking activity was determined in the isolated guinea pig right atrium against histamine stimulated tachycardia; format: tissue-based; details: Cardiac atrium
Chain of Histamine H2 receptor (Cavia porcellus) (P47747 whole entry): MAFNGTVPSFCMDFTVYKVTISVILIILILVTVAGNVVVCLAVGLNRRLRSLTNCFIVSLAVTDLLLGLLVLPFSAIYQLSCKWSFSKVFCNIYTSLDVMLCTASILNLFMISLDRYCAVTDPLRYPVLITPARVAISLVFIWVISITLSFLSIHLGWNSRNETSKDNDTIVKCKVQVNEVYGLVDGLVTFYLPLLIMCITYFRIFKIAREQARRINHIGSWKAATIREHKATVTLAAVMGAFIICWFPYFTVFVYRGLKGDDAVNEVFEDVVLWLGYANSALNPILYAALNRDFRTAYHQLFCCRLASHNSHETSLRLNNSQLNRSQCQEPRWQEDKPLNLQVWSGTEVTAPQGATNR

| SMILES | logD [1] | -Log KB [2] |
| --- | --- | --- |
| Cc1[nH]cnc1CSCCNc1nccc(O)c1[N+](=O)[O-] | -0.2 | 6.44 |
| Cc1[nH]cnc1CSCCNc1[nH]ccc1[N+](=O)[O-] | 1.04 | 7.31 |
| Cc1[nH]cnc1CSCCNc1cc(O)ccn1 | 0.8 | 4.8 |
| Cc1[nH]cnc1CSCCNC1=NCCS(=O)(=O)N1 | -0.74 | 4.57 |
| CNC(=N[N+](=O)[O-])NCCSCc1nc[nH]c1C | 0.13 |  |
| Cc1[nH]cnc1CSCCNC1=NC(=O)CN1 | -0.5 | 4.21 |
| C/N=C(/NCCSCc1[nH]cnc1C)N[N+](=O)[O-] |  | 5.84 |

Now from value to compound:

| logD [1] | -Log KB [2] | SMILES |
| --- | --- | --- |
|  | 6.04 | CNC(=S)NCCSCc1[nH]cnc1C |
| -0.08 | 4.23 | C/N=c1\c(O)c(O)\c1=N\CCSCc1[nH]cnc1C |
| -0.4 | < 4.5 | Cc1[nH]cnc1CSCCNc1ccnc(O)n1 |
| -0.06 | 4.69 | CNC(=O)NCCSCc1[nH]cnc1C |
| 0.02 | 5.13 | Cc1[nH]cnc1CSCCNc1nccc(O)n1 |
| 0.55 |  | C/N=C(\S)NCCSCc1[nH]cnc1C [METIAMIDE] |
| -0.4 | 5.85 | CN/C(=C/[N+](=O)[O-])NCCSCc1[nH]cnc1C |
| -0.87 | 6.31 | Cc1[nH]cnc1CSCCNC1=C([N+](=O)[O-])CCN1 |
| 0.79 | < 4 | Cc1[nH]cnc1CSCCNc1cccc(O)n1 |
